The target in test [1] is T1, Fatty-acid amide hydrolase 1 (Rattus norvegicus, UniProt P97612).
T1 sequence (P97612 whole entry): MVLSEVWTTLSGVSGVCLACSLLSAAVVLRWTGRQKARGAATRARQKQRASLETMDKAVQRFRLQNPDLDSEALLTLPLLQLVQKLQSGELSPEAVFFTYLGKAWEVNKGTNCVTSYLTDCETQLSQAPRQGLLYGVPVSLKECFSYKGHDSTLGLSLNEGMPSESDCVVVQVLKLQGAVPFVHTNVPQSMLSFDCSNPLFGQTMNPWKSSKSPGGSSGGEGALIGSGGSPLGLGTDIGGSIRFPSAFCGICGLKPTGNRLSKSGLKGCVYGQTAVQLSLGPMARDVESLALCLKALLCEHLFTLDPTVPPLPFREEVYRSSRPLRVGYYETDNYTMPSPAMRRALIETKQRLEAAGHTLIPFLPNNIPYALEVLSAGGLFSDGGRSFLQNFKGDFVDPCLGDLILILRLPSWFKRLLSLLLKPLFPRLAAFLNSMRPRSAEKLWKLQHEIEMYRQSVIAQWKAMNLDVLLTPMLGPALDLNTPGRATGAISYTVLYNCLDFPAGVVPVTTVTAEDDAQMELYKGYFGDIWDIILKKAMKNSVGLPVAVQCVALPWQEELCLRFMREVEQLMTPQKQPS
The experiment in a line: (§1) Inhibition of Sprague-Dawley rat brain microsome FAAH assessed as reduction in 4-pyren-1-ylbutanoic acid release after 60 mins by reverse phase HPLC-based fluorescence method.

For test [2], the target named is T2, Fatty-acid amide hydrolase 1 (Rattus norvegicus) (UniProt P97612).
T2 sequence (whole entry): T1 sequence (P97612 whole entry)
Put plainly: Inhibition of Sprague-Dawley rat brain FAAH assessed as residual activity at 10 uM after 60 mins by reverse phase HPLC-based fluorescence method.

Test [3] concerns the target T2, Fatty-acid amide hydrolase 1 (Rattus norvegicus). The test is described as §1.
In test [4] the target is Acyl-protein thioesterase 1 (Homo sapiens) (UniProt O75608). The experiment in a line: Inhibition of APT1 at 50 uM.
The target of test [5] is Acyl-protein thioesterase 2 (Homo sapiens) (UniProt O95372). The experiment in a line: Inhibition of APT2 at 50 uM.
A short description of test [6]: Inhibition of cPLA2alpha at 1 uM.

pIC50: −log10 of the molar value. The source made the active and inactive calls. The calls are words filed in the database; no cut-off is given here.

Chain of Acyl-protein thioesterase 2 (Homo sapiens) (O95372 whole entry): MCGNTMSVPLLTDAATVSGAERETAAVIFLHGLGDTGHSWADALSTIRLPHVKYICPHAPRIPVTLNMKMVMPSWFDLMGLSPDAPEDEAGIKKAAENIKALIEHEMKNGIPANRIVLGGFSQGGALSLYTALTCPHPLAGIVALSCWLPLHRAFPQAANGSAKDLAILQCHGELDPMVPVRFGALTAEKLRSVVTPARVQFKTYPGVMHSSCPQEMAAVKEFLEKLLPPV
Chain of Acyl-protein thioesterase 1 (Homo sapiens) (O75608 whole entry): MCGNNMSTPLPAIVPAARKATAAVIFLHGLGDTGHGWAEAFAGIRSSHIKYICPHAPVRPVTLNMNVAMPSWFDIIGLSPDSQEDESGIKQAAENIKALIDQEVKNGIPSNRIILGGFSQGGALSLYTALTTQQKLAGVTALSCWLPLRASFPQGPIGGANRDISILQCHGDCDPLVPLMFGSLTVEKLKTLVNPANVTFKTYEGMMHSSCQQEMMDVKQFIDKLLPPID

Consider `CCCCCCCCCCCC(=O)c1ncc(CCCS(=O)(=O)CCC[N+](C)(C)C)o1`, for which the pIC50 in test [1] is 5.72. For the same compound, the Activity in test [2] is 13%.

Regarding `CCCCCCCCCCCC(=O)c1ncc(CCSCCC[N+](C)(C)C)o1`, in test [3], the inhibition result is “inactive”. For the same compound, the Activity in test [2] is 78%.

On to `CCCCCCCC(=O)c1ncc(CCCS(=O)(=O)CCC[N+](C)(C)C)o1`, for which the Activity in test [2] is 53%.

As for `CCCCCCCCCCCC(=O)c1ncc(CCCCS(=O)(=O)CCCN(C)C)o1`, the inhibition entry in test [3] is “inactive”. Moreover, the Activity in test [2] stood at 32%.

Regarding `CCCCCCCC(=O)c1ncc(CCSCCCN(C)C)o1`, the Activity in test [2] came out at 34%.

On to `CCCCCCCCCCCC(=O)c1ncc(CCS(=O)(=O)CCCN(C)C)o1`, for which the pIC50 in test [1] is 6.43. For the same compound, the Activity in test [2] stood at 3%.

For `CCCCCCCC(=O)c1ncc(CCCCCS(=O)(=O)CCC[N+](C)(C)C)o1`, the Activity in test [2] was determined as 70%.

In the case of `CCCCCCCC(=O)c1ncc(CCCCCCSCCCN(C)C)o1`, in test [2], the Activity is 78%.

As for `CCCCCCCCCCCC(=O)c1ncc(CCS(=O)(=O)CCC[N+](C)(C)C)o1`, the pIC50 in test [1] was 5.85. Moreover, the Activity in test [2] is 11%.

On to `CCCCCCCC(=O)c1ncc(CCSCCC[N+](C)(C)C)o1`, for which the result in test [2] was inactive.

Take `CCCCCCCCCCCC(=O)c1ncc(CCCCCCS(=O)(=O)CCC[N+](C)(C)C)o1`: the inhibition result in test [3] was “inactive”. For the same compound, the Activity in test [2] was 31%.

With `CCCCCCCC(=O)c1ncc(CCCS(=O)(=O)CCCN(C)C)o1`, the pIC50 in test [1] was 5.62. Further, the Activity in test [2] stood at 22%.

`Cc1nc(-c2ccccc2)c(-c2ccccc2)n1CCCCCCNC(=O)Oc1ccccc1`: the pIC50 in test [1] was 6.47.

On to `CCCCCCCCCCCC(=O)c1ncc(CCCSCCCN(C)C)o1`, for which, in test [3], the inhibition entry was “inactive”. Besides, the Activity in test [2] turned out to be 40%.

Turning to `CCCCCCCC(=O)c1ncc(CCCCS(=O)(=O)CCC[N+](C)(C)C)o1`, the Activity in test [2] came out at 83%.

For the compound `CCCCCCCC(=O)c1ncc(CCCCCS(=O)(=O)CCCN(C)C)o1`, in test [2], the Activity was 73%.

For the compound `CCCCCCCCCCCC(=O)c1ncc(CCCCCCS(=O)(=O)CCCN(C)C)o1`, the inhibition entry in test [3] is “inactive”. Further, the Activity in test [2] was 51%.

Take `CCCCCCCCCCCC(=O)c1ncc(CCSCCCN(C)C)o1`: the inhibition result in test [3] was “inactive”. Further, the Activity in test [2] turned out to be 27%.

In the case of `CCCCCCCC(=O)c1ncc(CCS(=O)(=O)CCC[N+](C)(C)C)o1`, the Activity in test [2] stood at 61%.

With `CCCCCCCCCCCC(=O)c1ncc(CCCCSCCCN(C)C)o1`, the inhibition entry in test [3] is “inactive”. Further, the Activity in test [2] is 49%.

`CCCCCCCC(=O)c1ncc(CCCCCCSCCC[N+](C)(C)C)o1`: the Activity in test [2] amounted to 82%.

For the compound `CCCCCCCCCCCC(=O)c1ncc(CCCCCCSCCCN(C)C)o1`, in test [3], the inhibition entry is “inactive”. For the same compound, the Activity in test [2] came to 72%.

In the case of `O=C(CCCCCc1ccccc1)c1nc2ncccc2o1`, the pIC50 in test [1] was 8.54.

Take `CCCCCCCC(=O)c1ncc(CCCSCCCN(C)C)o1`: in test [2], the Activity is 64%.

`CCCCCCCCCCCC(=O)c1ncc(CCCCS(=O)(=O)CCC[N+](C)(C)C)o1`: the inhibition entry in test [3] is “inactive”. In addition, the Activity in test [2] is 49%.

Take `CCCCCCCC(=O)c1ncc(CCCCCSCCCN(C)C)o1`: the Activity in test [2] amounted to 78%.

Regarding `CCCCCCCC(=O)c1ncc(CCCCS(=O)(=O)CCCN(C)C)o1`, the Activity in test [2] came to 59%.

`CCCCCCCC(=O)c1ncc(CCS(=O)(=O)CCCN(C)C)o1`: the pIC50 in test [1] was 5.70. For the same compound, in test [2], the Activity is 23%.

`CCCCCCCCCCCC(=O)c1ncc(CCCCCCSCCC[N+](C)(C)C)o1`: the inhibition result in test [3] was “inactive”. Moreover, the Activity in test [2] stood at 71%.

As to `CCCCCCCC(=O)c1ncc(CCCCCCS(=O)(=O)CCCN(C)C)o1`, the Activity in test [2] came out at 62%.

With `CCCCCCCCCCCC(=O)c1ncc(CCCCCSCCCN(C)C)o1`, the inhibition entry in test [3] is “inactive”. In addition, the Activity in test [2] stood at 64%.

As for `CCCCCCCC(=O)c1ncc(CCCCSCCCN(C)C)o1`, the Activity in test [2] was found to be 48%.

As for `CCCCCCCCCCCC(=O)c1ncc(CCCS(=O)(=O)CCCN(C)C)o1`, the inhibition result in test [4], in test [5] and in test [6] was “inactive” in each case. For the same compound, the pIC50 in test [1] is 6.54. Besides, the Activity in test [2] was 2%.

In the case of `CCCCCCCCCCCC(=O)c1ncc(CCCCSCCC[N+](C)(C)C)o1`, the inhibition entry in test [3] was “inactive”. Also, the Activity in test [2] worked out at 78%.

For the compound `CCCCCCCCCCCC(=O)c1ncc(CCCCCS(=O)(=O)CCCN(C)C)o1`, the inhibition entry in test [3] is “inactive”. Besides, the Activity in test [2] worked out at 53%.

With `CCCCCCCC(=O)c1ncc(CCCCSCCC[N+](C)(C)C)o1`, the Activity in test [2] was 68%.

Consider `CCCCCCCCCCCC(=O)c1ncc(CCCCCS(=O)(=O)CCC[N+](C)(C)C)o1`, for which the inhibition entry in test [3] is “inactive”. For the same compound, the Activity in test [2] was found to be 57%.

What is called pIC50 is −log10 of the IC50, conventionally taken in molar units.

Values taken from ChEMBL document CHEMBL1932998, “Design, synthesis and evaluation of polar head group containing 2-keto-oxazole inhibitors of FAAH” (Bioorg Med Chem, 2012).
